This is an account of results in patent publication US10912294B2, “Composition for use as pesticide, fertilizer, or both, and uses thereof” (priority 2015, dated 2021).

The subject of data set [1] is Staphylococcus aureus (ATCC 6538). Kind of data set: Minimum concentration for total bactericidal activity, AOAC method 955.15 (Phenol Coefficient Method). It is filed as cell-based. The following applies: total antimicrobial (bactericidal) activity; incorporated into composition F; contact time 10 minutes.
In data set [2] the test system is E. amylovora 435 (streptomycin-sensitive). Kind of data set: Sensitivity test on King B agar media. It is filed as cell-based, Erwinia amylovora. The note with it: streptomycin 100, 250 and 500 ppm; composition 12 at 1, 2.5 and 5%; up to 72 hours at 26° C.
For data set [3], the system named is E. amylovora 153sm5 (streptomycin-resistant). It is filed as cell-based, Erwinia amylovora. The following applies: streptomycin 100, 250 and 500 ppm; composition 12 at 1, 2.5 and 5%; up to 72 hours at 26° C.
The subject of data set [4] is E. amylovora 433 (streptomycin-sensitive). Put plainly: Sensitivity test on King B agar media. The class given is cell-based, Erwinia amylovora. The following applies: streptomycin 100, 250 and 500 ppm; composition 12 at 1, 2.5 and 5%; up to 72 hours at 26° C.
For the next data set, the system named is E. coli ATCC 25922. Put plainly: Sensitivity test on King B agar media. The class given is cell-based. The following applies: streptomycin 100, 250 and 500 ppm; composition 12 at 1, 2.5 and 5%; up to 72 hours at 26° C.
The next data set concerns Trichophyton rubrum FF5. The note with it: E. pinto et al. 2006; cited from earlier work.
Data set [5] deals with Candida tropicalis ATCC13803. The note with it: E. pinto et al. 2006; cited from earlier work.
Data set [6] deals with Aspergillus fumigatus ATCC46645. The following applies: E. pinto et al. 2006; cited from earlier work.
Another data set has as its system Microsporum gypseum FF3. The following applies: E. pinto et al. 2006; cited from earlier work.
The test system of data set [7] is Staphylococcus epidermidis ATCC12228. The following applies: A. Nostro et al. 2004; cited from earlier work.
Data set [8] has as its system Staphylococcus aureus ATCC43300. The note with it: A. Nostro et al. 2004; cited from earlier work.
The subject of data set [9] is Staphylococcus aureus ATCC6538. The following applies: R. J. W. Lambert et al. 2001; cited from earlier work.
Data set [10] relates to Trichophyton mentagrophytes FF7. The note with it: E. pinto et al. 2006; cited from earlier work.
In a further data set the test system is Microsporum canis FF1. The following applies: E. pinto et al. 2006; cited from earlier work.
The subject of data set [11] is Pseudomonas aeruginosa ATCC2730. The following applies: R. J. W. Lambert et al. 2001; cited from earlier work.
The subject of data set [12] is Candida albicans ATCC10231. The following applies: E. pinto et al. 2006; cited from earlier work.
For data set [13], the system named is Epidermophyton floccosum FF9. The note with it: E. pinto et al. 2006; cited from earlier work.
Data set [14] deals with Aspergillus niger ATCC16404. The note with it: E. pinto et al. 2006; cited from earlier work.
For data set [15] the following is noted: in vivo; cited from earlier work.
Data set [16] concerns Treponema phagedaenis-like. The following applies: D. Döpfer et al. 2013; cited from earlier work.

Regarding `CC(C)=CCCC(C)=CC=O` [Citral], the “Minimal Concentration” value in data set [1] was over 1% v/v %.

Consider `[H]/N=C(/N)N[C@H]1[C@H](O)[C@@H](O)[C@H](O[C@@H]2O[C@@H](C)[C@](O)(C=O)[C@H]2O[C@@H]2O[C@@H](CO)[C@H](O)[C@@H](O)[C@@H]2NC)[C@@H](N/C(N)=N\[H])[C@@H]1O` [streptomycin], for which the “Bacterial growth on King B agar media containing the agent” value was “did not grow” in data set [2], “not inhibited” in data set [3], “did not grow” in [4] and “did not grow” with E. coli ATCC 25922.

As for `Cc1ccc(C(C)C)cc1O` [Carvacrol], the MIC in the data set on Trichophyton rubrum FF5 is on record as 0.008 v/v %; in data set [5] it was 0.016 v/v %; in data set [6], 0.016 v/v %; in the data set with Microsporum gypseum FF3, 0.004 v/v %; in [7], 0.03 v/v %; in [8] it was 0.015 v/v %. In addition, the MIC is 0.0175 v/v % in [9]; 0.004 v/v % in data set [10]; 0.004 v/v % in the data set on Microsporum canis FF1; 0.045 v/v % in data set [11]; 0.016 v/v % in data set [12]; 0.008 v/v % in [13]. Further, in data set [14], the MIC is listed as 0.016 v/v %. The “Minimal Concentration” value in data set [1] was determined as 0.07 v/v %.

With `C=CCc1ccc(O)c(OC)c1` [Eugenol], in [1], the “Minimal Concentration” value came out at 0.4 v/v %.

On to `COCC(C)O` (stereo not shown) [Glycol Ether PM], for which, in [15], the “LD50 Oral-rat” value is reported as 5 210 mg/kg.

`CCCCCCCCCCCCOS(=O)(=O)[O-].[Na+]` [Sodium Lauryl Sulfate]: in data set [15], the “LD50 Oral-rat” value is on record as 1288 mg/kg.

For the compound `Cc1ccc(C(C)C)c(O)c1` [Thymol], the MIC with Trichophyton rubrum FF5 was 0.016 v/v %; in [5], 0.016 v/v %; in data set [16], 0.0006 v/v %; in [6], 0.016 v/v %; with Microsporum gypseum FF3, 0.016 v/v %; in data set [7], 0.06 v/v %. Besides, the MIC in [8] was 0.06 v/v %; in [9] it was 0.014 v/v %; in data set [10], 0.016 v/v %; in the data set with Microsporum canis FF1, 0.008 v/v %; in [11], 0.0385 v/v %; in data set [12], 0.016 v/v %. Moreover, the MIC in data set [13] and in [14] was 0.016 v/v % in each case. The “Minimal Concentration” value in [1] is on record as 0.07 v/v %.
